From US10590113B2, “6-hydroxy-4-oxo-1,4-dihydropyrimidine-5-carboxamides as APJ agonists” (priority 2016, dated 2020) come the findings set out here.

Read-outs that look alike come from different tables or passages of the source.

The assay addresses T1, human APJ receptor (Homo sapiens, UniProt P35414).
T1 construct: expressed in transfected cells; host or cells: HEK293
T1 sequence (P35414 1-380): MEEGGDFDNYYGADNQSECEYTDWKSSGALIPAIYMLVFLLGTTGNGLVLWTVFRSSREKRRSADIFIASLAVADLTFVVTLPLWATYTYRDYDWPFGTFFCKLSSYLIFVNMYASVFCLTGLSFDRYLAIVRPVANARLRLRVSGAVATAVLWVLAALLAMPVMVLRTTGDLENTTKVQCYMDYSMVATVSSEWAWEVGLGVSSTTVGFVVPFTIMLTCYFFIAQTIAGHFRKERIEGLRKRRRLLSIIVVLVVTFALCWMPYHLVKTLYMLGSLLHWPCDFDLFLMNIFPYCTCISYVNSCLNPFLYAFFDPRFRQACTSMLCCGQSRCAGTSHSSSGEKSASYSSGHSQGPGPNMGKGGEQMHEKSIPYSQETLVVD
The assay is described as follows: Intracellular cAMP Accumulation Assay (APJ hcAMP, HTRF). The format is cell-based. Conditions: human APJ, read-out: hAPJ cAMP EC50 Potency range. The procedure, abridged:
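Stably transfected HEK293 cells (5,000/well) incubated 30 min at room temperature with serially diluted compound, […] and 2 μM forskolin. cAMP measured by HTRF after 60 min with detection reagents, quantified against a cAMP standard curve; EC50 from variable-slope sigmoidal fit of inhibition of forskolin-stimulated cAMP.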
For orientation: TR-FRET usually uses a lanthanide donor and a delayed reading to cut background.

Where [1] appears, read: intracellular cAMP accumulation.
The mark [2] stands for this setting: cAMP accumulation, potency range class.

As a reminder, the EC50 is the concentration giving half of the maximal effect. Consider `CC[C@@H](c1cc(F)cc(F)c1)n1c(-c2cnn(C)c2)nc(=O)c(C(=O)N2CCC(c3ccc(Cl)cn3)C2)c1O` (single isomer, unassigned) [Example 218], for which, under setting [1], the EC50 was 0.01 to 10 nM.
Turning to `CC[C@@H](c1cc(F)cc(F)c1)n1c(-c2cnn(C)c2)nc(=O)c(C(=O)N2CCC(c3ncccc3F)C2)c1O` (single isomer, unassigned) [Example 219], under setting [1], the EC50 lay in the range of 0.01 to 10 nM.
Still for that read-out and setting: the figure for `CC[C@@H](c1cc(F)cc(F)c1)n1c(-c2cnn(C)c2)nc(=O)c(C(=O)N2CCC(c3ccc(F)cn3)C2)c1O` (single isomer, unassigned) [Example 220] is 0.01 to 10 nM.
As for `CCc1cccc(CC)c1-n1c(COC(C)C)nc(=O)c(C(=O)N2CCC(c3ccncc3)C2)c1O` (single isomer, unassigned) [Example 221, 1-(2,6-diethylphenyl)-6-hydroxy-2-[(propan-2-yloxy)methyl]-5-[3-(pyridin-4-yl)pyrrolidine-1-carbonyl]-1,4-dihydropyrimidin-4-one], the concentration for a half-maximal effect (EC50) under setting [2] is 10 to 100 nM.
Still for that read-out and setting: under `COc1cccc(OC)c1-n1c(-c2ccc(F)cc2)nc(=O)c(C(=O)N2CCC(c3ccc(Cl)cc3)C2)c1O` (single isomer, unassigned) [Example 223] stands 10 to 100 nM.
For the compound `COc1cccc(OC)c1-n1c(-c2ccc(F)cc2)nc(=O)c(C(=O)N2CCC(c3ccncc3)C2)c1O` (single isomer, unassigned) [Example 224, 1-(2,6-dimethoxyphenyl)-2-(4-fluorophenyl)-6-hydroxy-5-[3-(pyridin-4-yl)pyrrolidine-1-carbonyl]-1,4-dihydropyrimidin-4-one], the 50% effective concentration (EC50) under setting [2] was in the range of 10 to 100 nM.
As for `COc1cccc(OC)c1-n1c(CC2CC2)nc(=O)c(C(=O)N2CCC(c3ccccc3F)C2)c1O` (single isomer, unassigned) [Example 226, 2-(cyclopropylmethyl)-1-(2,6-dimethoxyphenyl)-5-[3-(2-fluorophenyl)pyrrolidine-1-carbonyl]-6-hydroxy-1,4-dihydropyrimidin-4-one], under setting [2], the EC50 lay in the range of 0.01 to 10 nM.
As to `COc1cccc(OC)c1-n1c(CC2CC2)nc(=O)c(C(=O)N2CCC(c3ccc(Cl)cc3)C2)c1O` (single isomer, unassigned) [Example 228, 5-[3-(4-chlorophenyl)pyrrolidine-1-carbonyl]-2-(cyclopropylmethyl)-1-(2,6-dimethoxyphenyl)-6-hydroxy-1,4-dihydropyrimidin-4-one], the half-maximal effective concentration (EC50) under setting [2] was in the range of 0.01 to 10 nM.
`COc1cccc(OC)c1-n1c(-c2ccc(F)cc2)nc(=O)c(C(=O)N2CCC(c3ccccc3Cl)C2)c1O` (single isomer, unassigned) [Example 229, 5-[3-(2-chlorophenyl)pyrrolidine-1-carbonyl]-1-(2,6-dimethoxyphenyl)-2-(4-fluorophenyl)-6-hydroxy-1,4-dihydropyrimidin-4-one]: the EC50 under setting [2] lay in the range of 0.01 to 10 nM.
The same measure, in the same setting: the figure for `COc1cccc(OC)c1-n1c(CC2CC2)nc(=O)c(C(=O)N2CCC(c3ccncc3)C2)c1O` (single isomer, unassigned) [Example 230, 2-(cyclopropylmethyl)-1-(2,6-dimethoxyphenyl)-6-hydroxy-5-[3-(pyridin-4-yl)pyrrolidine-1-carbonyl]-1,4-dihydropyrimidin-4-one] is 10 to 100 nM; for `COc1cccc(OC)c1-n1c(Cc2ccc(F)cc2)nc(=O)c(C(=O)N2CCC(c3ccccc3F)C2)c1O` (single isomer, unassigned) [Example 231, 1-(2,6-dimethoxyphenyl)-2-[(4-fluorophenyl)methyl]-5-[3-(2-fluorophenyl)pyrrolidine-1-carbonyl]-6-hydroxy-1,4-dihydropyrimidin-4-one] it is 10 to 100 nM; for `COc1cccc(OC)c1-n1c(-c2cncc(C)c2)nc(=O)c(C(=O)N2CCC(c3ccc(F)cc3)C2)c1O` (single isomer, unassigned) [Example 232, 1-(2,6-dimethoxyphenyl)-5-[3-(4-fluorophenyl)pyrrolidine-1-carbonyl]-6-hydroxy-2-(5-methylpyridin-3-yl)-1,4-dihydropyrimidin-4-one] it is 0.01 to 10 nM.
Consider `COc1cccc(OC)c1-n1c(-c2cncc(C)c2)nc(=O)c(C(=O)N2CCC(c3ccccc3F)C2)c1O` (single isomer, unassigned) [Example 233, 1-(2,6-dimethoxyphenyl)-5-[3-(2-fluorophenyl)pyrrolidine-1-carbonyl]-6-hydroxy-2-(5-methylpyridin-3-yl)-1,4-dihydropyrimidin-4-one], for which the EC50 under setting [2] lay in the range of 0.01 to 10 nM.
Take `COc1ccccc1C1CCN(C(=O)c2c(O)n(-c3c(OC)cccc3OC)c(-c3cncc(C)c3)nc2=O)C1` (single isomer, unassigned) [Example 234, 1-(2,6-dimethoxyphenyl)-6-hydroxy-5-[3-(2-methoxyphenyl)pyrrolidine-1-carbonyl]-2-(5-methylpyridin-3-yl)-1,4-dihydropyrimidin-4-one]: under setting [2], the concentration giving a half-maximal response (EC50) was in the range of 0.01 to 10 nM.
For the compound `COc1cccc(OC)c1-n1c(-c2cccc(C)n2)nc(=O)c(C(=O)N2CCC(c3ncc(F)cc3F)C2)c1O` (single isomer, unassigned) [Example 235, 5-[3-(3,5-difluoropyridin-2-yl)pyrrolidine-1-carbonyl]-1-(2,6-dimethoxyphenyl)-6-hydroxy-2-(6-methylpyridin-2-yl)-1,4-dihydropyrimidin-4-one], the concentration for a half-maximal effect (EC50) under setting [2] lay in the range of 0.01 to 10 nM.
Same read-out and setting: the figure for `COc1cccc(OC)c1-n1c(-c2cccc(C)n2)nc(=O)c(C(=O)N2CCC(c3ccccc3F)C2)c1O` (single isomer, unassigned) [Example 236, 1-(2,6-dimethoxyphenyl)-5-[3-(2-fluorophenyl)pyrrolidine-1-carbonyl]-6-hydroxy-2-(6-methylpyridin-2-yl)-1,4-dihydropyrimidin-4-one] is 0.01 to 10 nM; for `COc1cccc(OC)c1-n1c(-c2cccc(Cl)c2)nc(=O)c(C(=O)N2CCC(c3ccccc3C#N)C2)c1O` (single isomer, unassigned) [Example 237, 2-{1-[2-(3-chlorophenyl)-1-(2,6-dimethoxyphenyl)-6-hydroxy-4-oxo-1,4-dihydropyrimidine-5-carbonyl]pyrrolidin-3-yl}benzonitrile] it is 0.01 to 10 nM; for `COc1cccc(OC)c1-n1c(-c2cccc(Cl)c2)nc(=O)c(C(=O)N2CCC(c3ncc(F)cc3F)C2)c1O` (single isomer, unassigned) [Example 238, 2-(3-chlorophenyl)-5-[3-(3,5-difluoropyridin-2-yl)pyrrolidine-1-carbonyl]-1-(2,6-dimethoxyphenyl)-6-hydroxy-1,4-dihydropyrimidin-4-one] it is 0.01 to 10 nM.
Consider `COc1cccc(OC)c1-n1c(-c2cc(C)ccn2)nc(=O)c(C(=O)N2CCC(c3ccccc3F)C2)c1O` (single isomer, unassigned) [Example 239, 1-(2,6-dimethoxyphenyl)-5-[3-(2-fluorophenyl)pyrrolidine-1-carbonyl]-6-hydroxy-2-(4-methylpyridin-2-yl)-1,4-dihydropyrimidin-4-one], for which the concentration giving a half-maximal response (EC50) under setting [2] fell in the range of 0.01 to 10 nM.
Take `COc1cccc(OC)c1-n1c(-c2cccc(C)c2)nc(=O)c(C(=O)N2CCC(c3c(F)cccc3F)C2)c1O` (single isomer, unassigned) [Example 241, 5-[3-(2,6-difluorophenyl)pyrrolidine-1-carbonyl]-1-(2,6-dimethoxyphenyl)-6-hydroxy-2-(3-methylphenyl)-1,4-dihydropyrimidin-4-one]: the EC50 under setting [2] lay in the range of 0.01 to 10 nM.
For the compound `COc1cccc(OC)c1-n1c(-c2cccc(C)c2)nc(=O)c(C(=O)N2CCC(c3ccccc3C#N)C2)c1O` (single isomer, unassigned) [Example 242, 2-{1-[1-(2,6-dimethoxyphenyl)-6-hydroxy-2-(3-methylphenyl)-4-oxo-1,4-dihydropyrimidine-5-carbonyl]pyrrolidin-3-yl}benzonitrile], the EC50 under setting [2] was 0.01 to 10 nM.
For the compound `COc1cccc(OC)c1-n1c(-c2cncc(Cl)c2)nc(=O)c(C(=O)N2CCC(c3ccccc3C#N)C2)c1O` (single isomer, unassigned) [Example 243, 2-{1-[2-(5-chloropyridin-3-yl)-1-(2,6-dimethoxyphenyl)-6-hydroxy-4-oxo-1,4-dihydropyrimidine-5-carbonyl]pyrrolidin-3-yl}benzonitrile], the EC50 under setting [2] lay in the range of 0.01 to 10 nM.
`COc1cccc(OC)c1-n1c(-c2cccc(C)c2)nc(=O)c(C(=O)N2CCC(c3ncc(F)cc3F)C2)c1O` (single isomer, unassigned) [Example 244, 5-[3-(3,5-difluoropyridin-2-yl)pyrrolidine-1-carbonyl]-1-(2,6-dimethoxyphenyl)-6-hydroxy-2-(3-methylphenyl)-1,4-dihydropyrimidin-4-one]: under setting [2], the EC50 fell in the range of 0.01 to 10 nM.
Consider `COc1cccc(-c2nc(=O)c(C(=O)N3CCC(c4ncccc4F)C3)c(O)n2-c2c(OC)cccc2OC)c1` (single isomer, unassigned) [Example 245, 1-(2,6-dimethoxyphenyl)-5-[3-(3-fluoropyridin-2-yl)pyrrolidine-1-carbonyl]-6-hydroxy-2-(3-methoxyphenyl)-1,4-dihydropyrimidin-4-one], for which, under setting [2], the concentration giving a half-maximal response (EC50) lay in the range of 0.01 to 10 nM.
The same measure, in the same setting: under `COc1cccc(-c2nc(=O)c(C(=O)N3CCC(c4ncc(F)cc4F)C3)c(O)n2-c2c(OC)cccc2OC)c1` (single isomer, unassigned) [Example 246, 5-[3-(3,5-difluoropyridin-2-yl)pyrrolidine-1-carbonyl]-1-(2,6-dimethoxyphenyl)-6-hydroxy-2-(3-methoxyphenyl)-1,4-dihydropyrimidin-4-one] stands 0.01 to 10 nM.
